# Data reported in a melting point compilation (Tetko et al.; mined from patent text by program, amines drawn as free bases though some values may be those of a salt).
row,Compound,melting point
1,COc1c(C)cc2c(c1C)C[C@@H]1c3ccccc3N[C@H]21 (relative stereo),117 °C
2,CC1CC(=O)NN=C1c1ccc(-n2ccnc2)nc1 (centres undefined),140 °C
3,Fc1ccc(C(c2ccc(Cl)cc2Cl)C(F)n2cncn2)cc1 (centres undefined),96 to 104 °C
4,CCCNC(=O)CN1C(=O)C2(COc3cc4c(cc32)CCO4)c2ccccc21 (centres undefined),207 to 209 °C
5,COC(=O)CCCc1cc2nc(Cl)ccc2n1S(=O)(=O)c1cccc(Cl)c1,107 °C
6,O=[PH](O)Cc1ccc(P(c2ccccc2)c2ccccc2)cc1,40 °C
7,CC1(C)CCC(S)(CCOC(=O)CCC(=O)O)CC1,55 to 60 °C
8,C[C@H](NC(=O)OCC1c2ccccc2-c2ccccc21)C(=O)N1[C@H](C)C(=O)OC[C@@H]1c1ccccc1,87 to 88 °C
9,CCn1ncnc1COc1nc2c(nnn2-c2ccccc2)c2ccccc12,192 to 195 °C
10,CC(=O)n1cc(C2C(=O)CC(C)(C)CC2=O)c2ccccc21,225 to 227 °C
11,COCC1CN(C(=O)c2cc(OC)c(OC)c(OC)c2)CCN1C(=O)C1=Cc2cc(OC)c(OC)cc2CCC1 (centres undefined),137 °C
12,COc1ccc(-c2ccc(C(N)=O)cc2)cc1OCCCCc1ccccc1,180 to 182 °C
13,COc1ccc2c(c1)OCN(CCO[N+](=O)[O-])C2=O,97 to 99 °C
14,Cc1ccc2oc(-c3ccccc3-c3nnnn3C(c3ccccc3)(c3ccccc3)c3ccccc3)c(Br)c2c1,199 to 200 °C
15,O=C1OC2(C=C1c1ccccc1)C=C(c1ccccc1)C(=O)O2,235 to 237 °C
16,COC=C(C(=O)OC)N(C)c1ccnc(-c2ccccc2)n1,152 to 154 °C
17,COc1cc(C(C)=O)ccc1OCCCCN1CCN(c2nsc3ccccc23)CC1,114 to 116 °C
18,CC(C)(C)OC(=O)Cn1c(=O)c(=O)[nH]c2cc(Cl)c(Cl)cc21,> 300 °C
19,O=C(Cc1ccccc1)c1cc(Br)ccc1O,83 to 86 °C
20,CCCCc1oc2ccc(CO)cc2c1C1(c2ccc(O)cc2)OCCO1,100 to 101 °C
21,O=C(O)CC(Cc1ccccc1[N+](=O)[O-])C(=O)O (centres undefined),135 to 138 °C
22,CC(C)n1nc(-c2sc(NC(=O)Cn3ccnc3)nc2-c2ccccc2)ccc1=O,160 to 161 °C
23,CC(=O)Nc1cc(Cl)c([N+](=O)[O-])cc1CCOC(C)=O,153 °C
24,O=C(NO)C(CCN1C(=O)c2ccccc2C1=O)NS(=O)(=O)c1ccc(-c2ccc(Cl)cc2)cc1 (centres undefined),184 to 186 °C
25,O=C1CCCc2c(-c3ccncc3)[nH]c(-c3ccccc3)c21,259 to 260 °C

row,Compound,melting point
1,CCOC(=O)c1cn(C)c2ccsc2c1=O,122 to 128 °C
2,CCOC(=O)c1sc(Oc2ccc(-n3cccc3)cc2)c2c1CCc1cnn(C)c1-2,139 to 140 °C
3,Cn1cncc1[N+](=O)[O-],58 to 60 °C
4,CCOc1c(CN2CCCCC2)c2c(c3c1OC(C)(C)C3)C(c1cccc(NC(=O)c3ccccc3C(=O)O)c1)=NC(C)(C)C2,155 to 157 °C
5,CN(C)c1ccc(OCC(=O)N[C@@H](CC(N)=O)C(=O)N[C@@H](Cc2ccccc2)[C@H](O)C(=O)N2CCC[C@H]2C(=O)NC(C)(C)C)cc1,102 to 104 °C
6,COc1cc(NC(=O)OCc2ccccc2)c(Cl)cc1C(=O)O,182 to 183 °C
7,C=Cc1ccc(Nc2nc(Cl)nc(Cl)c2Cl)cc1,112 to 114 °C
8,O=[N+]([O-])c1ccc(-c2cc(O)ccc2-c2ncnc(-c3ccccc3)n2)cc1,238 to 240 °C
9,OC1CNc2nc3ccccc3n2C1 (centres undefined),158 to 160 °C
10,Nn1nc(-c2ccc(Cl)cc2)cc1OCCN1CCOCC1,120 to 121 °C
11,Cc1cc(C)c(C2C(=O)CC(c3ccccc3)CC2=O)c(C)c1 (centres undefined),215 to 216 °C
12,COc1ccccc1Oc1cc2c(=O)c(NC=O)coc2cc1NS(C)(=O)=O,226 to 227 °C
13,O=C(OCC(Cl)(Cl)Cl)N1C2CCC1CC(Sc1ccc(Cl)cc1)C2 (centres undefined),70 to 71.5 °C
14,Oc1ccc(O)c(C2(c3ccccc3)CC3CCC2C3)c1 (centres undefined),179 to 181 °C
15,O=c1ccn(-c2cccc(C(F)(F)F)c2)nc1-c1ccn[nH]1,192 to 194 °C
16,O=C(O)CSC(CCCc1ccccc1)c1ccc(OCc2ccc3ccccc3n2)cc1 (centres undefined),118 to 119 °C
17,CN1CCN(Cn2cncc2-c2cc3c(Nc4ccc5[nH]ccc5c4)c(C#N)cnc3s2)CC1,> 245 °C
18,Oc1ccc(C2=COc3ccccc3O2)cc1,137 to 140 °C
19,N=C(Nc1cc(Cl)cc(NC(=O)/C=C/c2ccccc2C(F)(F)F)c1)c1ccccc1F,209 to 210 °C
20,Cc1cc(CCCOc2c(C)cc(-c3noc(C(N)=O)n3)cc2C)on1,177 to 178 °C
21,CN(C)S(=O)(=O)c1ccc(O)c(O)c1,142 °C
22,O=C1NCc2c1cccc2[N+](=O)[O-],235 to 237 °C
23,CN[C@@H]1Cc2ccccc2[C@H]1Nc1ccccc1CO (relative stereo),113 to 114 °C
24,CN1C2=C(CSC2)C(=O)Nc2cccnc21,240 to 241 °C
25,CNC(=S)c1cnn(-c2ccccc2)c1C#N,215 to 217 °C

row,Compound,melting point
1,O=C(O)c1ccc2oc(-c3ccc(C(F)(F)F)nc3)cc2c1,> 260 °C
2,CCOC(=O)C(=O)CC(=O)c1cn(Cc2ccc(O)cc2)c2ccccc2c1=O,179 to 181 °C
3,Oc1ccnc2[nH]cc(-c3ccncn3)c12,> 210 °C
4,Cc1ccc(-c2c(C)c(NC(=O)CC(C)(C)C)c(C)c3c2OCC3c2ccc(C(C)C)cc2)nc1 (centres undefined),228 to 229 °C
5,Cc1nc2cc(S(=O)(=O)n3c(CCC(=O)O)cc4cc(C(F)(F)F)ccc43)ccc2s1,235 to 236 °C
6,CN(C)CCc1cn(C(=O)c2ccccc2)c2ccc(O)cc12,154 to 156 °C
7,C=C(C)Cc1c(C)c(NC=O)c(C)c(C)c1O,163 to 164 °C
8,Cc1noc(-c2cccc(CN3CCN(c4ccc(NC(=O)OC(C)(C)C)cc4)CC3)c2)n1,159 to 161 °C
9,CCCCNc1c(C)cccc1C,124 to 131 °C
10,O=C(O)C(OCc1ccc(-c2ccc(Cl)cc2)cc1)c1ccc(Cl)cc1 (centres undefined),120 to 122 °C
11,N#Cc1ccc(C(=O)c2ccccc2)s1,85 to 89 °C
12,CCCc1c(OCc2ccccc2)ccc2c(=O)cc(CO)[nH]c12,197 to 199 °C
13,CN(C)C(=O)c1ccc([N+](=O)[O-])cc1S(=O)(=O)Cl,129 to 131 °C
14,CCOC(=O)c1cn(-c2nc(NC(C)C)c(F)cc2F)c2c(Cl)c(F)c(F)cc2c1=O,206 to 209 °C
15,O=C(Nc1ccc(C(=O)N2Cc3ccccc3Cc3ccccc32)cc1)c1cccnc1,217 to 220 °C
16,COc1cnc(N2CCN(c3ccc([N+](=O)[O-])cc3)CC2)nc1,212 °C
17,O=C1N(Cc2ncccc2C(F)F)c2ccccc2C12COc1cc3c(cc12)OCCO3 (centres undefined),181 to 182 °C
18,COc1ccc(Cc2nnc(N[C@H]3CC[C@H](C(C)C)CC3)c3ccccc23)cn1,124 to 125 °C
19,Cc1nc(-c2ccc(OCCCc3ccccc3)cc2)no1,78.5 to 79 °C
20,CCOC(=O)C1=C(C)NC(C)=C(C(=O)OCC)C1c1ncccc1O,238 to 239 °C
21,CSc1ccccc1C(=O)CBr,81 to 82 °C
22,CC(C)c1cc(C(C)C)c(OS(=O)(=O)CC(=O)N(Cc2ccccc2)Cc2ccccc2)c(C(C)C)c1,107 to 110 °C
23,COC(=O)C1CCC2C3CCC4CC=CCC4(C)C3C(NCCC(C)C)CC12C (centres undefined),150 to 152 °C
24,CCN(CC)C(=O)C=Cc1ccc(Cl)c(Cl)c1,60.7 °C
25,COC(=O)c1cc(C(=O)c2cc(C(=O)OC)c(OC)c([N+](=O)[O-])c2)cc([N+](=O)[O-])c1OC,96 to 98 °C

row,Compound,melting point
1,O=C(O)c1cc(O)cc2nc3c(O)cccc3nc12,> 300 °C
2,CCCCCCCCCCOc1cc(N)cc(OCCCCCCCCCC)c1,48 to 50 °C
3,COCOc1ccc(C=CC(=O)c2c(OCOC)cc(OCOC)c(CC=C(C)C)c2O)cc1OC,62.5 to 63.5 °C
4,CC(Cc1c[nH]c2ccccc12)(NC(=O)OC1C2CC3CC(C2)CC1C3)C(=O)NCC(NC=O)c1ccccc1 (centres undefined),102 to 118 °C
5,S=C=Nc1ccc(Nc2ccncc2)cc1,195 to 196 °C
6,C[C@H](NC(=O)[C@H](Cc1ccccc1)NC(=O)CS)C(=O)O,172 to 174 °C
7,CCc1nnc2cc(N3CCN(C)CC3)nc(CC)n12,128 to 131 °C
8,CCCc1nc(/C=C/c2ccccc2)c(C(=O)OCC)n1Cc1cc2c(cc1Cl)OCO2,161 °C
9,Cc1cc(-c2nc3cccnn3c2-c2ccnc(NC(=O)Nc3ccc(C#N)cc3)c2)ccc1F,204 to 206 °C
10,COC(=O)CCc1ccc(-n2c(C)nn(-c3ccc(C#N)cc3)c2=O)cc1,163 to 164 °C
11,O=C(Oc1cc(-c2ccccc2)nc2ccccc12)N1CCOCC1,127 °C
12,C#CCc1c(F)c(F)c(CO)c(F)c1F,51 to 52 °C
13,Cc1nc(N2CCN(Cc3nccc4ccccc34)C2=O)sc1C(=O)NCc1cccnc1,151 to 153 °C
14,C[C@H]1[C@H](N2C(=O)c3ccccc3C2=O)C(=O)N1O (relative stereo),94 to 96 °C
15,CC(C)(C)C(=O)OC(COc1cccc2[nH]ncc12)CN1CCC(COc2ccccc2)CC1 (centres undefined),116 to 118 °C
16,COC1=CC(=O)OC1C(O)c1ccccc1C(F)(F)F (centres undefined),126 to 128 °C
17,CCc1cccc(C)c1CNc1nc(C(=O)O)cn2c(C)c(C)nc12,230 °C
18,O=C(O)CCCCc1cc2ccccc2n1-c1cccnc1,143 to 144 °C
19,Clc1ccc(CNc2nc(NC3CCCc4ccccc43)c3ccccc3n2)cc1 (centres undefined),166 to 167 °C
20,COc1cc2c(Nc3ccc4cn[nH]c4c3)c(C#N)cnc2cc1OCCN1CCc2ccccc2C1,170 to 173 °C
21,Cn1cc2c(CO)c(Br)ccc2n1,123 to 125 °C
22,CN1C(c2ccc(F)cc2)=NC(C(F)(F)F)(C(F)(F)F)C1CC(=O)c1ccc(F)cc1 (centres undefined),145 to 147 °C
23,CC(=O)OC(OC(C)=O)c1ccc(C#N)cc1,104 to 107 °C
24,COc1nc2cc(Cl)c(Cl)c(C#Cc3ccccc3)c2nc1OC,170 to 172 °C
